Assay results reported in the NIST ThermoML archive (doi:10.1016/j.tca.2016.09.002).
Numbers after ± are expanded uncertainties.

How the values were obtained:
[1] = 101.33 kPa, Liquid, Hot wire method
[2] = wn = mass fraction of the nth substance listed; conditions: 303.15 K, 100.7 kPa, Liquid, Hot wire method

| thermal conductivity ([1]; 303.15 K) [W/m/K] | thermal conductivity ([1]; 313.15 K) [W/m/K] | thermal conductivity ([1]; 323.15 K) [W/m/K] | thermal conductivity ([2]; w1 = 0.00761) [W/m/K] | thermal conductivity ([2]; w1 = 0.0085) [W/m/K] | Structure (SMILES) |
| --- | --- | --- | --- | --- | --- |
| 0.607 ± 0.015 | 0.621 ± 0.016 | 0.631 ± 0.016 | – | – | O [water] |
| 0.254 ± 0.003 | 0.256 ± 0.004 | 0.26 ± 0.003 | – | – | OCCO [1,2-ethanediol] |
| – | – | – | 0.259 ± 0.003 | – | C[C@H](CCC(=O)[O-])[C@H]1CC[C@H]2[C@@H]3CC[C@@H]4C[C@H](O)CC[C@]4(C)[C@H]3C[C@H](O)[C@]12C.[Na+] [sodium deoxycholate] + OCCO |
| – | – | – | – | 0.617 ± 0.006 | C[C@H](CCC(=O)[O-])[C@H]1CC[C@H]2[C@@H]3CC[C@@H]4C[C@H](O)CC[C@]4(C)[C@H]3C[C@H](O)[C@]12C.[Na+] [sodium deoxycholate] + O |
